# Results reported in patent publication US11814364B2, “Pyridine N-oxide derivatives useful as factor XIa inhibitors” (Janssen Pharmaceutica NV, priority 2021, dated 2023).
# Molecular target: human plasma kallikrein (Homo sapiens, UniProt P03952)
# Test: Kallikrein inhibition FLINT assay with quenched AMC peptide substrate Z-Gly-Pro-Arg-AMC (end point EP or kinetic KIN reads)
# Format: biochemical
# Settings: kinetic reads at 5 min intervals over 30 min; read-out: Kallikrein (KIN) IC50
# Experimental: A fluorescence intensity (FLINT) based assay was used to monitor inhibition of human plasma kallikrein.
# The Kallikrein FLINT assay was used with the following Z-Gly-Pro-Arg-AMC assay buffer: 50 mM Tris, pH 7.5, 100 mM NaCl, 5 mM CaCl2, 0.1 mg/mL BSA, 0.03% CHAPS. Assay buffer was prepared by mixing all ingredients fresh. 2× Z-Gly-Pro-Arg-AMC peptide substrate was prepared by diluting 10 mM stock into 1× assay buffer for a 100 μM working concentration (50 μM final concentration).
# Test compound(s) were run in an 11-point, 3-fold serial dilution with a final top compound concentration of 1 μM. Final DMSO in assay was 2%. Plasma kallikrein was pre-incubated for 30-minute with compound and then 50 μM substrate was added to initiate the reaction. The assay was run with either end point (EP) reads at 30 min or kinetic (KIN) reads at 5 min intervals over 30 minutes.
# Percent inhibition (IC50) curves were generated per compound tested, and data was analyzed using a 4-parameter logistic fit using GeneData Screener. The relative fluorescence unit (RFU) values were normalized to percent inhibition using the following equation: % inhibition=((HC−LC)−(compound−LC)/(HC−LC))*100
# An 11-point dose response curve for the test compound(s) was generated using GENDATA to determine IC50 value based on the following equation: Y=Bottom+(Top−Bottom)/(1+10^((log IC50−X)*HillSlope))
# Results listed in columns with […] designation were measured using endpoint reads where a single fluorescence reading was measured for each well at a 30 min timepoint.
# human plasma kallikrein, sequence (P03952 391-638 limits assumed): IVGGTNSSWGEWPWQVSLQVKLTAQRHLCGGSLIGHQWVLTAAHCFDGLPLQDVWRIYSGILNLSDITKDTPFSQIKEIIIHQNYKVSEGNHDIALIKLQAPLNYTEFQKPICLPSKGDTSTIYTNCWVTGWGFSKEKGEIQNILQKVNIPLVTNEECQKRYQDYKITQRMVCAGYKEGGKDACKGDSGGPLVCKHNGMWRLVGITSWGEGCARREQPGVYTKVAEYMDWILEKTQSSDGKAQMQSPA
# human plasma kallikrein, sequence (P03952 20-390 partner limits assumed): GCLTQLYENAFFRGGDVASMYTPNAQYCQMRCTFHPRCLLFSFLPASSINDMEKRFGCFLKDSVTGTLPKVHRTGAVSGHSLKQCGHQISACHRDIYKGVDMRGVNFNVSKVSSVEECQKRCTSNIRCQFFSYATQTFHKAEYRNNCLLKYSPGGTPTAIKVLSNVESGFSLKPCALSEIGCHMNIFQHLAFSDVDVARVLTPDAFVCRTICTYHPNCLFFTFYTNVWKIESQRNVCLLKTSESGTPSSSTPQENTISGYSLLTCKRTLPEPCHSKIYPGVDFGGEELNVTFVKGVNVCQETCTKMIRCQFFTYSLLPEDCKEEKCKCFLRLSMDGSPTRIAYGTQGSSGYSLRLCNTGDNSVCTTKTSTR
row,IC50,Structure (SMILES)
1,259 nM,[O-][n+]1cc(-c2c(C(F)F)ccc(Cl)c2F)ccc1C(CCOC(F)F)n1cc(-c2ccnc(C(F)(F)F)n2)cn1 (stereo not drawn) [Example Q29]
2,9.4 nM,"NC(=O)c1ccn(CC(c2ccc(-c3c(-n4cnnn4)ccc(Cl)c3F)c[n+]2[O-])n2cc(-c3ccnc(C(F)(F)F)c3)cn2)n1 (single isomer, unassigned) [Example P448]"
3,165 nM,[O-][n+]1cc(-c2c(-n3cnnn3)ccc(Cl)c2F)ccc1[C@@H](CC1CC1)n1cc(-c2c(F)cnn2C(F)F)cn1 [Example P628]
4,180 nM,COCC[C@H](c1ccc(-c2c(-n3cnnn3)ccc(Cl)c2F)c[n+]1[O-])n1cc(-c2cnnn2C(F)F)cn1 [Example P690]
5,7710 nM,O=C(O)c1ccc(-c2cnn(C(c3cn(C4CCNCC4)nn3)c3ccc(-c4c(-n5cnnn5)ccc(Cl)c4F)c[n+]3[O-])c2)cc1 (stereo not drawn) [Example P52]
6,180 nM,COc1ccc(C2CC2CC(c2ccc(-c3cc(Cl)ccc3-n3cnnn3)c[n+]2[O-])n2cc(-c3ccc(C(=O)O)cc3)cn2)cc1 (stereo not drawn) [Example P239]
7,10.2 nM,NC(=O)Cc1ccn(CC(c2ccc(-c3c(-n4cnnn4)ccc(Cl)c3F)c[n+]2[O-])n2cc(-c3ccnc(C(F)(F)F)c3)cn2)n1 (stereo not drawn) [Example P486]
8,15.3 nM,[O-][n+]1cc(-c2cc(Cl)ccc2-n2cnnn2)ccc1C(Cc1ccc(Cl)cc1)n1cc(-c2ccncc2)cn1 (stereo not drawn) [Example P171]
9,536 nM,O=C(O)c1cccc(-c2cnn(C(CC3CC3)c3ccc(-c4cc(Cl)ccc4-n4cnnn4)c[n+]3[O-])c2)c1 (stereo not drawn) [Example P13]
10,41.6 nM,Cn1nncc1-c1cnn([C@H](CCOC(F)F)c2ccc(-c3c(-n4cc(C(F)(F)F)nn4)ccc(Cl)c3F)c[n+]2[O-])c1 [Example P761]
11,2.1 nM,Cn1ccc(CC(c2ccc(-c3c(-n4cnnn4)ccc(Cl)c3F)c[n+]2[O-])n2cc(-c3ccnc(C(F)(F)F)c3)cn2)n1 (stereo not drawn) [Example P377]
12,28.6 nM,CN(CC(c1ccc(-c2c(-n3cnnn3)ccc(Cl)c2F)c[n+]1[O-])n1cc(-c2ccnc(F)c2)cn1)C(=O)c1ccccc1 (stereo not drawn) [Example P424]
13,995 nM,O=C(C1CC1CC(c1ccc(-c2c(-n3cnnn3)ccc(Cl)c2F)c[n+]1[O-])n1cc(-c2ccccc2)cn1)N1CCC(c2ccccc2)C1 (stereo not drawn) [Example P196]
14,43.8 nM,[O-][n+]1cc(-c2c(-n3cnnn3)ccc(Cl)c2F)ccc1[C@@H](Cc1ccc(F)cc1)n1cc(-c2cn(C(F)F)nn2)cn1 [Example P600]
15,22.8 nM,[O-][n+]1cc(-c2cc(Cl)ccc2-n2cnnn2)ccc1C(Cc1ccc(Cl)cc1)n1cc(-c2ccnc(F)c2)cn1 (stereo not drawn) [Example P210]
16,2.9 nM,NC(=O)c1ccc(-c2cnn(C(Cc3ccn(C(F)F)n3)c3ccc(-c4c(-n5cc(C(F)(F)F)nn5)ccc(Cl)c4F)c[n+]3[O-])c2)cc1F (stereo not drawn) [Example P892]
17,~71 nM,"[O-][n+]1cc(-c2c(-n3cnnn3)ccc(Cl)c2F)ccc1C(CCOC(F)F)n1cc(-c2c(Cl)ncn2C(F)F)cn1 (single isomer, unassigned) [Example P843]"
18,13.9 nM,[O-][n+]1cc(-c2c(-n3cnnn3)ccc(Cl)c2F)ccc1C(Cn1cccn1)n1cc(-c2ccnc(C(F)F)c2)cn1 (stereo not drawn) [Example P318]
19,18.6 nM,"[O-][n+]1cc(-c2c(-n3cnnn3)ccc(Cl)c2F)ccc1C(CCOC(F)F)n1cc(-c2ccnc(C(F)(F)F)n2)cn1 (single isomer, unassigned) [Example P401]"
20,~383 nM,"[2H]C([2H])([2H])n1ncc(NC(=O)C2CC2)c1-c1cnn(C(CCOC(F)F)c2ccc(-c3c(-n4cc(Cl)nn4)ccc(Cl)c3F)c[n+]2[O-])c1 (single isomer, unassigned) [Example P810]"
21,201 nM,"[O-][n+]1cc(-c2c(-n3cnnn3)ccc(Cl)c2F)ccc1C(CC1CC1)n1cc(-c2ccncn2)cn1 (single isomer, unassigned) [Example P258]"
22,14.2 nM,"COc1cc(C(CC2CC2)n2cc(-c3ncnn3C(F)F)cn2)[n+]([O-])cc1-c1cc(Cl)ccc1-n1cc(C(F)(F)F)nn1 (single isomer, unassigned) [Example P940]"
23,19.1 nM,[O-][n+]1cc(-c2c(-n3cnnn3)ccc(Cl)c2F)ccc1[C@@H](Cc1cnn(C(F)F)n1)n1cc(-c2ccnc(C(F)(F)F)c2)cn1 [Example P742]
24,19 nM,N#Cc1cc(-c2cnn(C(CCOC(F)F)c3ccc(-c4c(-n5cnnn5)ccc(Cl)c4F)c[n+]3[O-])c2)ccn1 (stereo not drawn) [Example P458]
25,124 nM,[O-][n+]1cc(-c2c(-n3cnnn3)ccc(Cl)c2F)ccc1C(CC1CC1)n1cc(-c2ccncc2)cn1 (stereo not drawn) [Example P187]
26,151 nM,[O-][n+]1cc(-c2c(-n3cnnn3)ccc(Cl)c2F)ccc1C(CC1CC1)n1cc(-c2ccnc(OC(F)F)c2)cn1 (stereo not drawn) [Example P313]

row,IC50,Structure (SMILES)
1,572 nM,"CN(CC(c1ccc(-c2c(-n3cnnn3)ccc(Cl)c2F)c[n+]1[O-])n1cc(-c2ccnc(C(F)(F)F)c2)cn1)C(=O)C1CC1 (single isomer, unassigned) [Example P425]"
2,> 100 nM,CC1CC1CC(c1ccc(-c2c(-n3cnnn3)ccc(Cl)c2F)c[n+]1[O-])n1cc(-c2ncnn2C(F)F)cn1 (stereo not drawn) [Example P764]
3,0.4 nM,"NC(=O)c1ccc(-c2cnn(C(Cc3ccn(C(F)F)n3)c3ccc(-c4c(-n5cnnn5)ccc(Cl)c4F)c[n+]3[O-])c2)cc1F (single isomer, unassigned) [Example P933]"
4,8.4 nM,Cn1cc(C[C@H](c2ccc(-c3c(-n4cnnn4)ccc(Cl)c3F)c[n+]2[O-])n2cc(-c3ccnc(C(F)(F)F)c3)cn2)nn1 [Example P736]
5,119 nM,"COC(=O)Nc1ccc(-c2cnn(C(CC3CCCO3)c3ccc(-c4c(-n5cnnn5)ccc(Cl)c4F)c[n+]3[O-])c2)cc1 (single isomer, unassigned) [Example P202]"
6,11.1 nM,[O-][n+]1cc(-c2c(-n3cnnn3)ccc(Cl)c2F)ccc1[C@@H](Cc1nccs1)n1cc(-c2ccnn2C(F)F)cn1 [Example P718]
7,10.4 nM,COc1cc(C(Cc2ccccc2)n2cc(-c3ccc(C(=O)O)cc3)cn2)[n+]([O-])cc1-c1c(OCC(F)(F)F)ccc(Cl)c1F (stereo not drawn) [Example Q6]
8,11.8 nM,[O-][n+]1cc(-c2c(-n3cnnn3)ccc(Cl)c2F)ccc1[C@@H](CCOC(F)F)n1cc(-c2cnnn2C(F)F)cn1 [Example P676]
9,53.6 nM,CN(CC(c1ccc(-c2c(-n3cnnn3)ccc(Cl)c2F)c[n+]1[O-])n1cc(-c2ccnc(F)c2)cn1)C(=O)C(C)(C)C (stereo not drawn) [Example P426]
10,67.6 nM,O=C1c2ccccc2CN1CC(c1ccc(-c2cc(Cl)ccc2-n2cnnn2)c[n+]1[O-])n1cc(-c2ccncc2)cn1 (stereo not drawn) [Example P293]
11,5290 nM,COCC[C@@H](c1ccc(-c2c(-n3cnnn3)ccc(Cl)c2F)c[n+]1[O-])n1cc(-c2cc(C(F)(F)F)nn2C)cn1 [Example P620]
12,10.2 nM,NC(=O)c1ccc(-c2cnn([C@H](CCOC(F)F)c3ccc(-c4c(-n5cc(C(F)(F)F)nn5)ccc(Cl)c4F)c[n+]3[O-])c2)cc1F [Example P860]
13,86.7 nM,CCCC(c1ccc(-c2c(-n3cnnn3)ccc(Cl)c2F)c[n+]1[O-])n1cc(-c2ccc(NC(=O)OC)cc2)cn1 (stereo not drawn) [Example P156]
14,212 nM,[O-][n+]1cc(-c2c(-n3cc(Cl)nn3)ccc(Cl)c2F)ccc1[C@@H](CCOC(F)F)n1cc(-c2cnn(C(F)F)n2)cn1 [Example P666]
15,13.4 nM,Cn1nccc1-c1cnn(C(Cn2cc(F)cn2)c2ccc(-c3c(-n4cnnn4)ccc(Cl)c3F)c[n+]2[O-])c1 (stereo not drawn) [Example P503]
16,179 nM,CC(C)(C)OCC[C@H](c1ccc(-c2c(-n3cnnn3)ccc(Cl)c2F)c[n+]1[O-])n1cc(-c2ccnn2C(F)F)cn1 [Example P640]
17,72.9 nM,"[O-][n+]1cc(-c2c(-n3cnnn3)ccc(Cl)c2F)ccc1C(Cn1cccn1)n1cc(-c2ccnc(C(F)(F)F)c2)cn1 (single isomer, unassigned) [Example P514]"
18,32.6 nM,Cn1nnc(F)c1-c1cnn(C(Cc2ccn(C(F)F)n2)c2ccc(-c3c(-n4cc(Cl)nn4)ccc(Cl)c3F)c[n+]2[O-])c1 (stereo not drawn) [Example P795]
19,136 nM,COC(=O)Nc1ccc(-c2cnn(C(CC3CCC(C)CC3)c3ccc(-c4c(-n5cnnn5)ccc(Cl)c4F)c[n+]3[O-])c2)cc1 (stereo not drawn) [Example P129]
20,66.8 nM,COCC(=O)N(C)CC(c1ccc(-c2c(-n3cnnn3)ccc(Cl)c2F)c[n+]1[O-])n1cc(-c2ccnc(C(F)(F)F)c2)cn1 (stereo not drawn) [Example P427]
21,70.2 nM,"COCc1ccn(CC(c2ccc(-c3c(-n4cnnn4)ccc(Cl)c3F)c[n+]2[O-])n2cc(-c3ccnc(C(F)(F)F)c3)cn2)n1 (single isomer, unassigned) [Example P440]"
22,13.5 nM,[O-][n+]1cc(-c2c(-n3cnnn3)ccc(Cl)c2F)ccc1[C@@H](CCOC(F)F)n1cc(-c2scnc2C(F)(F)F)cn1 [Example P580]
23,2.4 nM,[2H]C([2H])([2H])n1nccc1-c1cnn([C@H](CCOC(F)F)c2ccc(-c3c(-n4cnnn4)ccc(Cl)c3F)c[n+]2[O-])c1 [Example P556]
24,290 nM,[O-][n+]1cc(-c2c(-n3cnnn3)ccc(Cl)c2F)ccc1[C@@H](CC1CC1)n1cc(-c2nnn(C(F)F)c2Cl)cn1 [Example P604]
25,14.9 nM,COc1cc(C(CC2CC2C(=O)N2CCCCC2)n2cc(-c3ccc(N)nc3C)cn2)[n+]([O-])cc1-c1c(-n2cnnn2)ccc(Cl)c1F (stereo not drawn) [Example P248]
